The source of these data is publication PMC6273065, “Synthesis, Molecular Modelling and Biological Evaluation of Novel Heterodimeric, Multiple Ligands Targeting Cholinesterases and Amyloid Beta” (Molecules, 2016).

For series [1], the target named is T1, EqBuChE (Equus caballus, UniProt P81908).
T1 construct: BuChE from equine serum (EqBuChE, Sigma–Aldrich); purchased Sigma–Aldrich; host or cells: equine serum
The following applies: % inhibition at 50 μM lower than 50%; cited from earlier work.

In series [2] the target is T2, EeAChE (Electrophorus electricus, UniProt O42275).
T2 construct: purchased Sigma–Aldrich
Particulars: cited from earlier work.

Series [3] addresses T3, Aβ1–42 (Homo sapiens, UniProt P05067).
T3 construct: Recombinant human HFIP-pretreated Aβ1–42 peptide; purchased Merck Millipore Lot number 2387442
Further details: method as in PMID 26032855. Particulars: 10 µM compound, self-induced; mean ± SD; cited from earlier work.

The subject of the next series is Aβ12–23. Particulars: 50 µM compound, self-induced Aβ12–23 aggregation; mean ± SD; cited from earlier work.
The target of series [4] is T1, EqBuChE. As to the kind of experiment: biochemical. How it is done: (§1) Ellman’s method was used to determine the activity of the synthesized compounds against AChE from electric eel (Electrophorus electricus, EeAChE) and BuChE from equine serum (EqBuChE).
(§2) All assays were performed in 0.1 M phosphate buffer pH 8.0. The tested compounds or water in a blank sample (25 µL) were incubated with the enzyme (20 µL) for 5 min at 25 °C in buffer (765 µL) prior to starting the reaction. Then, DTNB (20 µL) and ATC (20 µL) were added. […] Each condition was measured in triplicate. The percentages of enzyme inhibition were calculated from the equation 100%—Ai/A0 × 100%, where Ai is the absorbance of a sample with an inhibitor and A0 is the absorbance of a blank sample (100% activity of the enzyme). The IC50 values were calculated using GraphPad Prism 5. Data is expressed as mean ± SEM.

Series [5] concerns the target T2, EeAChE. Kind of series: biochemical. The class given is biochemical. On the procedure: as §1, §2
For series [6], the target named is T2, EeAChE. As to the kind of experiment: Kinetic characterization of EeAChE inhibition (Lineweaver–Burk, Cornish–Bowden plots). Format: biochemical. The following applies: Lineweaver–Burk and Cornish–Bowden plots, ATC 0.067–0.5 mM. On the procedure:
Both types of inhibition were further confirmed by Cornish–Bowden plots (S/V vs. [I]) (A. in Supplementary Materials).
To estimate the type of inhibition of EeAChE, the same experimental protocol as reported above (4.3.1) was performed. Different concentrations of the substrate ATC (0.067–0.5 mM) were used to create Lineweaver-Burk plots by plotting the inverse initial velocity (1/V) as a function of the inverse of the substrate concentration (1/[S]). The stock solution of ATC (0.5 mM in a well) was prepared in water and diluted before use to obtained 0.4, 0.3, 0.2, 0.1and 0.067 mM concentrations of substrate. The double reciprocal plots were assessed by a weighted least square analysis that assumed the variance of V to be a constant percentage of V for the entire data set. Each experiment was performed in triplicate. Then, to confirm the mode of inhibition, Cornish-Bowden plots were obtained by plotting S/V (substrate concentration/velocity ratio) versus the inhibitor concentration [I]. Data analysis was performed with GraphPad Prism 5.

Series [7] addresses T3, Aβ1–42. As to the kind of experiment: Thioflavin-T fluorometric assay of self-induced Aβ1–42 aggregation. The class given is biochemical. The following applies: 10 µM compound, 1.5 µM Aβ1–42; mean ± SD; <10 = defined as not active; read-out: Aβ1–42 Aggreg. % of inhibition. From the text: Mechanisms of Aβ aggregation remain unclear. Besides the self-induced assembly of Aβ, several other factors affect its aggregation, including metal ions, AChE [45], and oxidative stress. Therefore, we evaluated our compounds using the most versatile and commonly used Aβ1–42 aggregation Thioflavin T assay. Seven structurally diverse compounds were selected (one from each subseries) to test their ability to inhibit self-induced Aβ1–42 aggregation.
Thioflavin-T (ThT) fluorometric assay was performed to investigate the effect of the test compounds on the self-aggregation of Aβ1–42. […] Each sample was prepared in quadruplicate, and the DMSO was always at 3%. To quantify amyloid fibril formation, the ThT fluorescence was measured through the bottom of the plate every 180 s at an excitation wavelength of 440 nm and emission wavelength of 490 nm, with the medium continuously shaking between measurements using a 96-well microplate reader (Synergy™ H4, BioTek Instruments, Inc., Winooski, VT, USA). […] The fluorescence intensities at the plateau in the absence and presence of the test compounds were averaged, and the average fluorescence of the corresponding wells at t = 0 h was subtracted.

For series [8] the following is noted: PAMPA-BBB; for Log Pe: 2 h at 37 °C, means of two replicates; for Prediction of BBB penetration: class from log Pe. How it is done: For anti-Alzheimer drug candidates, the ability to cross the blood–brain barrier and to enter the central nervous system (CNS) is crucial to achieve their pharmacological target and activity.
The BBB-PAMPA Explorer Test System was purchased from pION Inc. The in vitro permeability through BBB-1 lipid membrane was determined for 7 commercial drugs and the tested compounds. The compounds were dissolved in DMSO (10 mM stock solution) and diluted with Prisma HT buffer (5 µL/1 mL). Then, the […] 96-well microplate was filled with solution of the tested compounds in buffer (200 µL/well). The filter membrane in acceptor 96-well microplate was impregnated with BBB-1 lipid solution (5 µL/well) and the acceptor plate was filled with Brain Sink Buffer (200 µL/well). The acceptor plate was carefully placed on the donor plate to form a sandwich that was left undisturbed for 2 h at 37 °C. After incubation, the donor plate was carefully removed. The concentration of compounds in the acceptor, the donor, and the reference wells were measured using EnSpire Multimode Microplate Reader (PerkinElmer).

A word on the IC50: it is the midpoint of a concentration-inhibition curve. The inhibition is the drop in the measured response relative to a control, in per cent.

Read-outs that look alike come from different tables or passages of the source. Marks after values point to notes of the source that are not given here. Where only a bound is given, the exact number is not on record here.

T2 sequence (O42275 24-633): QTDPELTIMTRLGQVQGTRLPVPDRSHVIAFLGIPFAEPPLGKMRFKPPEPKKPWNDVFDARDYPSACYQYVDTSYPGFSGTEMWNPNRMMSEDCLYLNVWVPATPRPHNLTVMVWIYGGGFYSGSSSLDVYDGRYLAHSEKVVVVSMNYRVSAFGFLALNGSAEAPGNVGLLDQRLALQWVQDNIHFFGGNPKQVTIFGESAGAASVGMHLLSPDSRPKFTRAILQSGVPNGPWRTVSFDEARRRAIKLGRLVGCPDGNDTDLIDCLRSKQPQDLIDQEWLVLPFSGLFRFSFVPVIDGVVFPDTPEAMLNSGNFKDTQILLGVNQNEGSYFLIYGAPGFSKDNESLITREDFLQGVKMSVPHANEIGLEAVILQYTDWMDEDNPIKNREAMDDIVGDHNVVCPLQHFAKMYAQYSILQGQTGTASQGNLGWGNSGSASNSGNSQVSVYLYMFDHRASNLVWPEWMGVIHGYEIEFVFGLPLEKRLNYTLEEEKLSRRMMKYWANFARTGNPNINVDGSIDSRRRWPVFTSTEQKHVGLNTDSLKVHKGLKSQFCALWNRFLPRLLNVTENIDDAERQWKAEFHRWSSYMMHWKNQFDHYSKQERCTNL
T3 sequence (P05067 672-713): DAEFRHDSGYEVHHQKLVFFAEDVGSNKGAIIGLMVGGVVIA
T1 sequence (P81908 whole entry): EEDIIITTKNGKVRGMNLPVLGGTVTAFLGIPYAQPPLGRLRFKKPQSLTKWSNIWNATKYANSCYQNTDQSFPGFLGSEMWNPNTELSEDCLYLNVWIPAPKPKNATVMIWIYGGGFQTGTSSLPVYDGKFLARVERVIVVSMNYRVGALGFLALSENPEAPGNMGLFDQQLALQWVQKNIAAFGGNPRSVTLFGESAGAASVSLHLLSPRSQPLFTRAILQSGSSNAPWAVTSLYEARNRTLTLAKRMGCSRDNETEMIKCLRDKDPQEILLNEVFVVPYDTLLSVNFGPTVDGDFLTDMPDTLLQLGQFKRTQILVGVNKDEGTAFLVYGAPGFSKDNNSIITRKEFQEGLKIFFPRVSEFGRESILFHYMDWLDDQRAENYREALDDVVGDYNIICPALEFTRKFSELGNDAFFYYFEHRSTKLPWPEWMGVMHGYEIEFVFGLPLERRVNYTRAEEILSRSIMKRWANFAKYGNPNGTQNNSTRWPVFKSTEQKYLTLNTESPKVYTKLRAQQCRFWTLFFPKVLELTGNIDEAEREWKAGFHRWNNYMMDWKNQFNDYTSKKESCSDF

With `O=C1c2ccccc2S(=O)(=O)N1CCCCCNCc1ccccc1` [Compd. II], the IC50 is above 50000 nM on EqBuChE [1] and 36 ± 1 nM on EeAChE [2]. For the same molecule, at Aβ1–42 [3], the “Aβ1–42 Aggreg. % of inhibition” value is recorded as 22.19 ± 16.6%.

Turning to `CCN(CC)CCCCCCCCN1C(=O)c2ccccc2C1=O` [Compd. I], in the series on Aβ12–23, the “Aβ12–23 aggregation % of inhibition” value was 30.10 ± 5.78 ^f %.

As for `O=C1c2ccccc2C(=O)N1CCCCCCCN1CCCC1` [Compound 3, 2-(7-(Pyrrolidin-1-yl)heptyl)isoindoline-1,3-dione], the IC50 was above 50000 nM on EqBuChE [4] and 276 ± 3 nM at EeAChE [5]. For the same molecule, the “type of EeAChE inhibition” value at EeAChE [6] was “mixed type of enzyme inhibition”.

At EqBuChE [4], `O=C1c2ccccc2C(=O)N1CCCCCCCCN1CCCC1` [Compound 4, 2-(8-(Pyrrolidin-1-yl)octyl)isoindoline-1,3-dione] returned an IC50 of 3240 ± 141 nM. Further, the inhibition at 10 µM on Aβ1–42 [7] stood at 15.2 ± 3.06%. At EeAChE [5], it took 282 ± 11 nM to reach half-maximal inhibition (IC50). For the same molecule, in series [8], the “Log Pe” value is given as “–4.0” and the “Prediction of BBB penetration” value is given as “CNS+ (CNS+, log Pe > −4.5, high permeability (i.e., can enter the CNS))”. In addition, the “type of EeAChE inhibition” value at EeAChE [6] is reported as “mixed type of enzyme inhibition”.

Turning to `O=C1c2ccccc2C(=O)N1CCCCCCN1CCc2ccccc2C1` [Compound 11, 2-(6-(3,4-dihydroisoquinolin-2(1H)-yl)hexyl)isoindoline-1,3-dione], the IC50 against EqBuChE [4] worked out at 5120 ± 90 nM; against EeAChE [5], 387 ± 3 nM. On EeAChE [6], the “type of EeAChE inhibition” value is reported as “mixed type of enzyme inhibition”.

Turning to `O=C1c2ccccc2S(=O)(=O)N1CCCCCNCc1cccc(Cl)c1` [Compound 42, 2-(5-(3-chlorobenzylamino)pentyl)benzo[d]isothiazol-3(2H)-one 1,1-dioxide], the IC50 against EqBuChE [4] is above 50000 nM. Further, the inhibition at 10 µM at Aβ1–42 [7] came to 16.5 ± 3.01%. At EeAChE [5], this molecule showed an IC50 of 70 ± 1 nM. In series [8], the “Log Pe” value is reported as “–4.3” and the “Prediction of BBB penetration” value is reported as “CNS+ (CNS+, log Pe > −4.5, high permeability (i.e., can enter the CNS))”. On EeAChE [6], the “type of EeAChE inhibition” value is “linear non-competitive type of inhibition”.
